Paper PMC9395490, “An open-label, crossover study to compare different formulations and evaluate effect of food on pharmacokinetics of pimitespib in patients with advanced solid tumors” (Investigational New Drugs, 2022)
Where two headings read alike, the source gives them in different places.

Assays:
[1] = tested on: patients with advanced GIST; parameters: method as in PMID 31536852; conditions: phase II, advanced GIST failed or intolerant to imatinib, sunitinib, regorafenib; cited from earlier work
[2] = tested on: patients with advanced solid tumors; parameters: method as in PMID 30679388; conditions: phase I; cited from earlier work
[3] = PK evaluation period, Cohort 2: food effect, single dose of Formulation A under fed vs fasting conditions (crossover); format: in vivo, patients with advanced solid tumors
Experimental: For fasting conditions, patients were required to fast at least 10 h before dosing and at least 4 h after dosing and abstain from drinking water 1 h before and after administration, excluding the water consumed at the time of dosing. For fed conditions, patients were required to fast for at least 10 h before dosing and at least 4 h after dosing (except for the scheduled study meal) and abstain from drinking for 1 h before and after administration, except for drinking water. The study drug was administered within 30 min of completing the meal. The study meal was a high-fat (approximately 50% of the total caloric content of the meal) and high-calorie (572–715 kcal) meal considering the weight ratio of Japanese to American individuals. […]
For the analyses related to Cohort 2, the ANOVA model included treatment (fasting and fed conditions), treatment period, and treatment sequence as fixed effects, and patients nested within treatment sequence as a random effect. The GMR and 90% CI of the fed condition to the fasting condition were calculated.

[4] = tested on: patients with advanced GIST; parameters: method as in doi:10.1200/JCO.2021.39.15_suppl.11524; conditions: phase III, cited from earlier work
[5] = PK evaluation period, Cohort 1: single dose of Formulation A vs Formulation B under fasting conditions (crossover); format: in vivo, patients with advanced solid tumors
Experimental: This clinical, pharmacological, multicenter study was conducted in Japan and consisted of two cohorts (Cohorts 1 and 2) and two periods. The patients were first assigned to the pharmacokinetic evaluation period to investigate PK parameters of each formulation (Cohort 1) or the effect of food (Cohort 2), and then to the consecutive administration period (Supplementary Fig. 1).
In both cohorts, a randomized cross-over design was used.
For fasting conditions, patients were required to fast at least 10 h before dosing and at least 4 h after dosing and abstain from drinking water 1 h before and after administration, excluding the water consumed at the time of dosing. For fed conditions, patients were required to fast for at least 10 h before dosing and at least 4 h after dosing (except for the scheduled study meal) and abstain from drinking for 1 h before and after administration, except for drinking water. The study drug was administered within 30 min of completing the meal. The study meal was a high-fat (approximately 50% of the total caloric content of the meal) and high-calorie (572–715 kcal) meal considering the weight ratio of Japanese to American individuals. The meal’s nutritional value was adjusted based on the body weight of Japanese patients according to the US FDA standard guidance. It was recommended that study drug dosing be done with 100–200 (usually 150) mL of water.
Patients underwent hematologic, coagulation, biochemical laboratory examinations, urinalysis, electrocardiogram, ophthalmologic examination, and vital sign and body weight assessments. Blood collection occurred before pimitespib administration and at 0.5, 1, 2, 4, 6, 8, 10, 24, and 48 h after administration at the first and second doses.
For Cohort 1 analyses, the values of the natural log-transformed PK parameters (Cmax, AUClast, AUCinf, terminal elimination rate constant [λz], and mean residence time) were analyzed using analysis of variance (ANOVA), using Phoenix® WinNonlin® Ver. 8.1. […] The time to maximum plasma concentration (tmax) was not transformed and was analyzed using Wilcoxon’s signed-rank test, conducted using EXSUS version 10.0.3. The significance level was set at 5%.

Question: For `CCc1cc(C(N)=O)ccc1-n1nc(C(C)C)c2c(-n3cnc(-c4cnn(C)c4)c3)ccnc21` [pimitespib, Pimitespib], which “median PFS” value [1] is on record?
Answer: 4.4 months

Question: And the “patients with GIST achieving a partial response” value [2]?
Answer: one

Question: What about the “patients with non-small cell lung cancer achieving a partial response” value [2] of the same compound?
Answer: two

Question: And the “AUC under fed conditions, fold higher than under fasting conditions” value [3]?
Answer: ~1.6 fold

Question: And the “Cmax under fed conditions, fold higher than under fasting conditions” value [3]?
Answer: approximately 1.9 fold

Question: What about the “median PFS” value ([4]; advanced GIST refractory or intolerant to imatinib, sunitinib, regorafenib) of the same compound?
Answer: 2.8 months

Question: What about the “hazard ratio (HR) for PFS” value ([4]; pimitespib vs placebo) of the same compound?
Answer: 0.51

Question: What about the “inter-subject CV% for AUCinf” value [5] of the same compound?
Answer: 54.4%

Question: What about the “inter-subject CV% for AUClast” value [5] of the same compound?
Answer: 52.6%

Question: What about the “inter-subject CV% for Cmax” value [5] of the same compound?
Answer: 63.8%

Question: And the “intra-subject CV% for AUCinf” value [5]?
Answer: 24.9%

Question: What about the “intra-subject CV% for AUClast” value [5] of the same compound?
Answer: 24.4%

Question: What about the “intra-subject CV% for Cmax” value [5] of the same compound?
Answer: 28.5%
